Converted amounts (≈) assume the structure as drawn. Read-outs that look alike come from different tables or passages of the source.
How the values were obtained:
[1] = transcutaneous toxicity in rats; settings: rat, in vivo, topical or ocular, male rats
[2] = tested on: Staphylococcus aureus 9561; assay: MIC (Table II); type: cell-based; settings: read-out: minimum inhibition concentration
Description: (§1) The antibiotic activity was determined by the diffusion method in a gelose medium at a pH of 7. The following Table expresses the minimum concentration of inhibition in mcg/ml (CMl) for the products against different microbial strains.
(§2) Using the same procedure as in Table I, the minimum inhibition concentration in mcg/ml was determined against different microbial strains with L(-) cis 7-[D(-)-α-aminophenylacetamido]-3-isopropyl-3-cepheme-4-carboxylic acid (product A) of Example 9.

[3] = tested on: Streptococcus hemolyticus 905; assay: MIC (Table II); type: cell-based; settings: Streptococcus pyogenes, read-out: minimum inhibition concentration
Description: as §1, §2

Escherichia coli 5524 = assay: MIC (Table II); type: cell-based; settings: read-out: minimum inhibition concentration
Description: as §1, §2

Escherichia coli 152 = assay: MIC (Table II); type: cell-based; settings: read-out: minimum inhibition concentration
Description: as §1, §2

Proteus mirabilis 1668 = assay: MIC (Table II); type: cell-based; settings: read-out: minimum inhibition concentration
Description: as §1, §2

[4] = tested on: Staphylococcus aureus 017; assay: MIC (Table II); type: cell-based; settings: read-out: minimum inhibition concentration
Description: as §1, §2

Escherichia coli 9957 = assay: MIC (Table II); type: cell-based; settings: read-out: minimum inhibition concentration
Description: as §1, §2

[5] = tested on: Salmonella brandebourg 550; assay: MIC (Table II); type: cell-based; settings: read-out: minimum inhibition concentration
Description: as §1, §2

Shigella sonnei = assay: MIC (Table II); type: cell-based; settings: read-out: minimum inhibition concentration
Description: as §1, §2

Escherichia coli 3019 = assay: MIC (Table II); type: cell-based; settings: read-out: minimum inhibition concentration
Description: as §1, §2

Proteus mirabilis 8029 = assay: MIC (Table II); type: cell-based; settings: read-out: minimum inhibition concentration
Description: as §1, §2

What does the source list for CC(C)C1=C(C(=O)O)N2C(=O)[C@@H](NC(=O)[C@H](N)c3ccccc3)[C@H]2SC1 [Example 9, L (+) cis 7-[D (-)-α-aminophenylacetamido]-3-isopropyl-3-cepheme-4-carboxylic acid]?
LD50 at 192 h [1]: > 1600 mg/kg; MIC ([2]; 24h): 1 µg/mL (≈ 2.66 µM); MIC ([2]; 48h): 3 µg/mL (≈ 7.99 µM); MIC ([2]; 72h): 10 µg/mL (≈ 26.6 µM); MIC ([3]; 24h): 2 µg/mL (≈ 5.33 µM); MIC ([3]; 48h): 2 µg/mL (≈ 5.33 µM); MIC ([3]; 72h): 2 µg/mL (≈ 5.33 µM); MIC (Escherichia coli 5524; 24h): 60 µg/mL (≈ 160 µM); MIC (Escherichia coli 5524; 48h): 60 µg/mL (≈ 160 µM); MIC (Escherichia coli 5524; 72h): 60 µg/mL (≈ 160 µM); MIC (Escherichia coli 152; 24h): 30 µg/mL (≈ 79.9 µM); MIC (Escherichia coli 152; 48h): 30 µg/mL (≈ 79.9 µM); MIC (Escherichia coli 152; 72h): 40 µg/mL (≈ 107 µM); MIC (Proteus mirabilis 1668; 24h): 100 µg/mL (≈ 266 µM); MIC (Proteus mirabilis 1668; 48h): > 100 µg/mL; MIC ([4]; 24h): 2 µg/mL (≈ 5.33 µM); MIC ([4]; 48h): 5 µg/mL (≈ 13.3 µM); MIC ([4]; 72h): 15 µg/mL (≈ 40 µM); MIC (Escherichia coli 9957; 24h): 40 µg/mL (≈ 107 µM); MIC (Escherichia coli 9957; 48h): 100 µg/mL (≈ 266 µM); MIC (Escherichia coli 9957; 72h): 100 µg/mL (≈ 266 µM); MIC ([5]; 24h): 30 µg/mL (≈ 79.9 µM); MIC ([5]; 48h): 30 µg/mL (≈ 79.9 µM); MIC ([5]; 72h): 40 µg/mL (≈ 107 µM); MIC (Shigella sonnei; 24h): 30 µg/mL (≈ 79.9 µM); MIC (Shigella sonnei; 48h): 30 µg/mL (≈ 79.9 µM); MIC (Shigella sonnei; 72h): 30 µg/mL (≈ 79.9 µM); MIC (Escherichia coli 3019; 24h): 30 µg/mL (≈ 79.9 µM); MIC (Escherichia coli 3019; 48h): 40 µg/mL (≈ 107 µM); MIC (Escherichia coli 3019; 72h): 40 µg/mL (≈ 107 µM); MIC (Proteus mirabilis 8029; 24h): 60 µg/mL (≈ 160 µM); MIC (Proteus mirabilis 8029; 48h): > 100 µg/mL

From patent publication US4016158A, “Cephalosporin derivatives” (Roussel-UCLAF, priority 1971, dated 1977)
